How the values were obtained:
[1] = molecular target: T1, human VEGF receptor (VEGFR-2) (Homo sapiens, UniProt P35968); test: VEGFR2 kinase assay; format: biochemical; settings: His-VEGFR-2 cytoplasmic domain, 3.6 μM ATP; Table IV, amide or urea linker; read-out: VEGFR2 Enzyme IC50
T1 construct: The cytoplasmic domain of the human VEGF receptor (VEGFR-2) was expressed; His; made in house; host or cells: insect cells (baculovirus)
Method: The cytoplasmic domain of the human VEGF receptor (VEGFR-2) was expressed as a Histidine-tagged fusion protein following infection of insect cells using an H is engineered baculovirus. […] Kinase assays were performed in 96 well microtiter plates that were coated overnight with 30 µg of poly-Glu-Tyr (4:1) in 10 mM Phosphate Buffered Saline (PBS), pH 7.2-7.4. The plates were incubated with 1% BSA and then washed four times with PBS prior to starting the reaction. Reactions were carried out in 120 µL reaction volumes containing 3.6 µM ATP in kinase buffer (50 mM Hepes buffer pH 7.4, 20 mM MgCl2, 0.1 mM MnCl2 and 0.2 mM Na3 VO4). […] Reactions were initiated by the addition 0.5 ng of purified protein. Following a ten minute incubation at 25 degree. […] IC50 values for compound inhibition were calculated directly from graphs of optical density (arbitrary units) versus compound concentration following subtraction of blank values.

VEGFR2 = VEGFR2 (Homo sapiens, UniProt P35968); test: VEGF stimulated Ca++ signal in vitro (FLIPR)
Method: VEGF Stimulated Ca^++Signal in Vitro
Automated FLIPR (Fluorometric Imaging Plate Reader) technology was used to screen for inhibitors of VEGF induced increases in intracellular calcium levels in fluorescent dye loaded endothelial cells. HUVEC (human umbilical vein endothelial cells) (Clonetics) were seeded in 96-well fibronectin coated black-walled plates overnight at 37 degree. C./5% CO2. […] C. Cells were washed 4 times (Original Cell Wash, Labsystems) to remove extracellular dye. […] Data were generated by determining max-min fluorescence levels for unstimulated, stimulated, and drug treated samples. IC50 values for test compounds were calculated from % inhibition of VEGF stimulated responses in the absence of inhibitor.

VEGFR1 = VEGFR1 (Homo sapiens, UniProt P17948); test: VEGFR1 enzyme assay; format: biochemical; settings: Table IV, amide or urea linker
PDGFβ = PDGFβ (Homo sapiens, UniProt P09619); test: PDGFβ enzyme assay; format: biochemical; settings: Table IV, amide or urea linker
PDGFβ, sequence (P09619 33-1106): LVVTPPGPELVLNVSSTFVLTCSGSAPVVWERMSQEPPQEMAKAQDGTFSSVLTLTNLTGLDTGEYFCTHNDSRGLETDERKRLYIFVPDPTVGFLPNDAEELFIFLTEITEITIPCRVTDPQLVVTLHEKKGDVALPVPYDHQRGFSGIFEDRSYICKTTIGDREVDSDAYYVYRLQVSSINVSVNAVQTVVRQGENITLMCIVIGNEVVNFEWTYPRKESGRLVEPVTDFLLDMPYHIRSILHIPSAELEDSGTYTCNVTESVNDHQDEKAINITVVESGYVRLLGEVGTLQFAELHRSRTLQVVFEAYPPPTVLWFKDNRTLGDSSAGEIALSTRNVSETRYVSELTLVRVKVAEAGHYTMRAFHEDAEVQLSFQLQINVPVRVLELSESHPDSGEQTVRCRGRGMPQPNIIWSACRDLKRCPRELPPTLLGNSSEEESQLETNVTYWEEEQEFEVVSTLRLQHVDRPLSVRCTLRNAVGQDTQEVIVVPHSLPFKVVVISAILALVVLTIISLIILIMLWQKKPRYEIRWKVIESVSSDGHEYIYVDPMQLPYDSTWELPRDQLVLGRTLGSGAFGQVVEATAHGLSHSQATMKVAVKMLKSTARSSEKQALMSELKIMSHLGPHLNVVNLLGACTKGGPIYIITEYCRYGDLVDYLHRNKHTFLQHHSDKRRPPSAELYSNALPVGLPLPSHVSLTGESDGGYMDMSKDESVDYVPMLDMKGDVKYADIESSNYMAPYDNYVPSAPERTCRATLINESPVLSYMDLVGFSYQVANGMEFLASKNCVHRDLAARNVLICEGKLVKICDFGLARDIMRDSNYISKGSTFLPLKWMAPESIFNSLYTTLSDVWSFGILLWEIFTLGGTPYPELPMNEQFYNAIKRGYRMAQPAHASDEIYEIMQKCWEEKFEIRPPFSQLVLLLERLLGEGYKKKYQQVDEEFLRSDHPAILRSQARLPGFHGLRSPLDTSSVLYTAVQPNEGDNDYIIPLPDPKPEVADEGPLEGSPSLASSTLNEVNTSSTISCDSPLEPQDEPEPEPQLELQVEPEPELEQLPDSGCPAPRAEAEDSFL

T1 sequence (P35968 786-1356 limits assumed): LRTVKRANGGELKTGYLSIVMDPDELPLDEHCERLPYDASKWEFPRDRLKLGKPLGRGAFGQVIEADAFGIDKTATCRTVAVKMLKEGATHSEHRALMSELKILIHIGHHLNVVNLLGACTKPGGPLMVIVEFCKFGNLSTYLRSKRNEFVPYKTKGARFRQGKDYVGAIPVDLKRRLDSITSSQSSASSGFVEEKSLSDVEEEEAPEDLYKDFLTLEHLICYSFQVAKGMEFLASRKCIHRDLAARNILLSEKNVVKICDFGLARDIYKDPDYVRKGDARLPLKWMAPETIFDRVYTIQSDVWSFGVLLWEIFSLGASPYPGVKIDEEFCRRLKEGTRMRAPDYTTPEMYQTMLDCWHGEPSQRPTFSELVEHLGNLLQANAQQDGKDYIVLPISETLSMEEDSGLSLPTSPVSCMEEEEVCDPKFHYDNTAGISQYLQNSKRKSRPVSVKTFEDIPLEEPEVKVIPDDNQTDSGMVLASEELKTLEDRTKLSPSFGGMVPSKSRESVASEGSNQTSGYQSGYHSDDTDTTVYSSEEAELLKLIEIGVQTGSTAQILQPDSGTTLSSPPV
VEGFR1, sequence (P17948 27-1338, species assumed): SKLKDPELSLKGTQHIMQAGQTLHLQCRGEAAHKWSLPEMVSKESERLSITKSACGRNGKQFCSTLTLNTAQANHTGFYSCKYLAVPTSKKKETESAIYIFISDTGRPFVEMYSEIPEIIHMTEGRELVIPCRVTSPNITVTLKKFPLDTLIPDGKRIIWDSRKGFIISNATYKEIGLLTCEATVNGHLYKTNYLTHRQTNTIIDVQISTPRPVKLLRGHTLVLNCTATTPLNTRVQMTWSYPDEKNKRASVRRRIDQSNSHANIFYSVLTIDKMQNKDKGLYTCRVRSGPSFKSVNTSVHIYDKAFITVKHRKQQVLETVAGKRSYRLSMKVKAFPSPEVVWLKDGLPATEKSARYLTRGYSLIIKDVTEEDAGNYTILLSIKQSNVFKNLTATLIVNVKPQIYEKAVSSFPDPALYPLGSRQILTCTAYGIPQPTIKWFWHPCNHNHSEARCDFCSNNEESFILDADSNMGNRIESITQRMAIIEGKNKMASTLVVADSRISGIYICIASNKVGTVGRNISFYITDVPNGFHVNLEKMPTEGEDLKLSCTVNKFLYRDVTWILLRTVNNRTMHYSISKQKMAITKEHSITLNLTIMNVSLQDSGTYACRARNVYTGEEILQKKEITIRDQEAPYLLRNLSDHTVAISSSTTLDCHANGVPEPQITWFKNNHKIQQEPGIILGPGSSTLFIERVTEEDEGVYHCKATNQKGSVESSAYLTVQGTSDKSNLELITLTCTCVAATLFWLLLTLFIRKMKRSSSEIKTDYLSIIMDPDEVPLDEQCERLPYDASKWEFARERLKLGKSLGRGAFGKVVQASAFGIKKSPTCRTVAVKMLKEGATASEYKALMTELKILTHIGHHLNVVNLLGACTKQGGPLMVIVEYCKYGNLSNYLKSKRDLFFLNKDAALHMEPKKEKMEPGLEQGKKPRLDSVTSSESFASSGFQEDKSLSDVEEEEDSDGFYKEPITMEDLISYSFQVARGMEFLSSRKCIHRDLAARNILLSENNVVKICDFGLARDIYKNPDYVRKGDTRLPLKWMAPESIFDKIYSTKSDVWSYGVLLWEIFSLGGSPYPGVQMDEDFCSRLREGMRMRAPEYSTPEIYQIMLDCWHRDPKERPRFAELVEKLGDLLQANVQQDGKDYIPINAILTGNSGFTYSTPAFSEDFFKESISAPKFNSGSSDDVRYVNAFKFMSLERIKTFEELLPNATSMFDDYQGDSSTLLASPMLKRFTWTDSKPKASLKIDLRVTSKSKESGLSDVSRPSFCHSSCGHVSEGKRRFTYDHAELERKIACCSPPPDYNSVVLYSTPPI
VEGFR2, sequence (P35968 20-1356): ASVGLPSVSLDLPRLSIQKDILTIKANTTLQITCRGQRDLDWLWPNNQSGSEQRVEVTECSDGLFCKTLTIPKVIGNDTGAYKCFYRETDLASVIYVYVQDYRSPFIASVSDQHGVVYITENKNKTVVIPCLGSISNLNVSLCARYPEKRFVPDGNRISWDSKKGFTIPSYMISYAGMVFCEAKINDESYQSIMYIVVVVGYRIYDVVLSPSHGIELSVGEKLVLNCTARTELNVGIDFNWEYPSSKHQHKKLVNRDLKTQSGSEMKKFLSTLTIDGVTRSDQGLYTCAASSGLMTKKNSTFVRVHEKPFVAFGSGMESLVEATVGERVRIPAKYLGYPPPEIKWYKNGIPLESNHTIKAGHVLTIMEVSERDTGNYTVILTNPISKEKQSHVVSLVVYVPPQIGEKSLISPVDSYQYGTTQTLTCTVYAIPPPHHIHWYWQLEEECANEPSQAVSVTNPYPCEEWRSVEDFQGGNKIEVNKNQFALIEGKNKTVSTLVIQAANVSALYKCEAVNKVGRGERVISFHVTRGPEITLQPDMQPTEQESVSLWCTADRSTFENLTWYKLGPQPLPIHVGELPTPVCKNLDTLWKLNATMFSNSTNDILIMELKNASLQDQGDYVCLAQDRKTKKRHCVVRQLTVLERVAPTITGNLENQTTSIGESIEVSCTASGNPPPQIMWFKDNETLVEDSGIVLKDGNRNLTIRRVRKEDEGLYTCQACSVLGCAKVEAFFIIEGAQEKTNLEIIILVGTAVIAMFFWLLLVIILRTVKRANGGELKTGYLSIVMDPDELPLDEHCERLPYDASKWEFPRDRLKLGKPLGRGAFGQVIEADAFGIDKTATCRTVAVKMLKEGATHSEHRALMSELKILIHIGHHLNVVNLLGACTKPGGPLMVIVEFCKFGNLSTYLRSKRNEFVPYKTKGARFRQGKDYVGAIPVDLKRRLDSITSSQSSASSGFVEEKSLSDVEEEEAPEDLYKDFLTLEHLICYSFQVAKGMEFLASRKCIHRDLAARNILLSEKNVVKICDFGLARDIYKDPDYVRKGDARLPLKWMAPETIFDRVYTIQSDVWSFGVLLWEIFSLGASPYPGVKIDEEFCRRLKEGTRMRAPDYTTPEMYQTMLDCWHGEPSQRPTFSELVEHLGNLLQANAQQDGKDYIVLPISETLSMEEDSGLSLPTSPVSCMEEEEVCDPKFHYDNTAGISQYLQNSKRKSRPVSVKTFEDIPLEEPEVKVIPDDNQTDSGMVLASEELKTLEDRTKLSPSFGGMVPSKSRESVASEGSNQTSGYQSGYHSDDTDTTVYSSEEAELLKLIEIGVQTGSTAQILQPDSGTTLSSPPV

| SMILES | IC50 [1] [nM] | IC50 (VEGFR2) [nM] | IC50 (VEGFR1) [nM] | IC50 (PDGFβ) [nM] |
| --- | --- | --- | --- | --- |
| COC(=O)[C@@H]1CCCN1CCCNC(=O)c1c[nH]c(-c2cc(Oc3ccc(F)c(NC(=O)c4occc4C)c3)ccn2)c1 [Example 188, methyl 1-[3-({[5-(4-{4-fluoro-3-[(3-methyl-2-furoyl)amino]phenoxy}pyridin-2-yl)-1H-pyrrol-3-yl]carbonyl}amino)propyl]pyrrolidine-2-carboxylate] | 27 | 5 | 32 | – |
| Cc1ccoc1C(=O)Nc1cc(Oc2ccnc(-c3cc(C(=O)NCCCN4CCC(O)CC4)c[nH]3)c2)ccc1F [Example 189, 5-(4-{4-fluoro-3-[(3-methyl-2-furoyl)amino]phenoxy}pyridin-2-yl)-N-[3-(4-hydroxypiperidin-1-yl)propyl]-1H-pyrrole-3-carboxamide] | 34 | 15 | 37 | – |
| Cc1ccc(F)c(NC(=O)Nc2ccc(Oc3ccnc(-c4cc(C(=O)NCCCN5CCCC5C(=O)O)c[nH]4)c3)cc2F)c1 (stereo not drawn) [Example 220, 1-(3-{[(5-{4-[3-fluoro-4-({[(2-fluoro-5-methylphenyl)amino]carbonyl}amino)phenoxy]pyridin-2-yl}-1H-pyrrol-3-yl)carbonyl]amino}propyl)pyrrolidine-2-carboxylic acid] | 13 | – | 11 | 23 |
| Cc1ccc(F)c(NC(=O)Nc2ccc(Oc3ccnc(-c4cc(C(=O)NCCN)c[nH]4)c3)cc2F)c1 [Example 222, N-(2-aminoethyl)-5-{4-[3-fluoro-4-({[(2-fluoro-5-methylphenyl)amino]carbonyl}amino)phenoxy]pyridin-2-yl}-1H-pyrrole-3-carboxamide] | 9 | – | 15 | 29 |
| Cc1ccc(F)c(NC(=O)Nc2ccc(Oc3ccnc(-c4cc(C(=O)NCCCN)c[nH]4)c3)cc2F)c1 [Example 223, N-(3-aminopropyl)-5-{4-[3-fluoro-4-({[(2-fluoro-5-methylphenyl)amino]carbonyl}amino)phenoxy]pyridin-2-yl}-1H-pyrrole-3-carboxamide] | 13 | – | 12 | 16 |
| COC(=O)C1CCCN1CCCNC(=O)c1c[nH]c(-c2cc(Oc3ccc(NC(=O)Nc4cc(C)ccc4F)c(F)c3)ccn2)c1 (stereo not drawn) [Example 228, methyl 1-(3-{[(5-{4-[3-fluoro-4-({[(2-fluoro-5-methylphenyl)amino]carbonyl}amino)phenoxy]pyridin-2-yl}-1H-pyrrol-3-yl)carbonyl]amino}propyl)pyrrolidine-2-carboxylate] | 11 | – | 8 | 9 |
| Cc1ccc(F)c(NC(=O)Nc2ccc(Oc3ccnc(-c4cc(C(=O)NCCCC(=O)OCC(CO)(CO)CO)c[nH]4)c3)cc2)c1 [Example 234, 3-hydroxy-2,2-bis(hydroxymethyl)propyl 4-{[(5-{4-[4-({[(2-fluoro-5-methylphenyl)amino]carbonyl}amino)phenoxy]pyridin-2-yl}-1H-pyrrol-3-yl)carbonyl]amino}butanoate] | 8 | – | 11 | 17 |
| Cc1ccc(F)c(NC(=O)c2ccc(F)c(Oc3ccnc(-c4cc(C(=O)NCCCO)c[nH]4)c3)c2)c1 [Example 244, 5-[4-(2-fluoro-5-{[(2-fluoro-5-methylphenyl)amino]carbonyl}phenoxy)pyridin-2-yl]-N-(3-hydroxypropyl)-1H-pyrrole-3-carboxamide] | 12 | – | 31 | 94 |
| Cc1ccc(F)c(NC(=O)Nc2ccc(Oc3ccnc(-c4cc(C(=O)NCCCN5CCCC5C(=O)O)c[nH]4)c3)cc2)c1 (stereo not drawn) [Example 247, 1-(3-{[(5-{4-[4-({[(2-fluoro-5-methylphenyl)amino]carbonyl}amino)phenoxy]pyridin-2-yl}-1H-pyrrol-3-yl)carbonyl]amino}propyl)pyrrolidine-2-carboxylic acid] | 15 | – | 25 | 21 |
| COC(=O)CC[C@H](NC(=O)c1c[nH]c(-c2cc(Oc3cc(C(=O)Nc4cc(C)ccc4F)ccc3F)ccn2)c1)C(=O)OC [Example 249, dimethyl 2-[({5-[4-(2-fluoro-5-{[(2-fluoro-5-methylphenyl)amino]carbonyl}phenoxy)pyridin-2-yl]-1H-pyrrol-3-yl}carbonyl)amino]pentanedioate] | 33 | – | 46 | 55 |
| Cc1ccc(F)c(NC(=O)Nc2ccc(Oc3ccnc(-c4cc(C(=O)NCCCN)c[nH]4)c3)cc2)c1 [Example 250, N-(3-aminopropyl)-5-{4-[4-({[(2-fluoro-5-methylphenyl)amino]carbonyl}amino)phenoxy]pyridin-2-yl}-1H-pyrrole-3-carboxamide] | 24 | – | 8 | 54 |
| Cc1ccc(F)c(NC(=O)Nc2ccc(Oc3ccnc(-c4cc(C(=O)NCCCNC(=O)OC(C)(C)C)c[nH]4)c3)cc2)c1 [Example 251, tert-butyl (3-{[(5-{4-[4-({[(2-fluoro-5-methylphenyl)amino]carbonyl}amino)phenoxy]pyridin-2-yl}-1H-pyrrol-3-yl)carbonyl]amino}propyl)carbamate] | 46 | – | 18 | 79 |
| Cc1ccc(F)c(NC(=O)c2ccc(F)c(Oc3ccnc(-c4cc(C(=O)NCCCN)c[nH]4)c3)c2)c1 [Example 252, N-(3-aminopropyl)-5-[4-(2-fluoro-5-{[(2-fluoro-5-methylphenyl)amino]carbonyl}phenoxy)pyridin-2-yl]-1H-pyrrole-3-carboxamide] | 24 | – | 25 | 99 |
| Cc1ccc(F)c(NC(=O)c2ccc(F)c(Oc3ccnc(-c4cc(C(=O)NCCCNC(=O)OC(C)(C)C)c[nH]4)c3)c2)c1 [Example 253, tert-butyl {3-[({5-[4-(2-fluoro-5-{[(2-fluoro-5-methylphenyl)amino]carbonyl}phenoxy)pyridin-2-yl]-1H-pyrrol-3-yl}carbonyl)amino]propyl}carbamate] | 64 | – | 36 | 200 |
| Cc1ccc(F)c(NC(=O)c2ccc(F)c(Oc3ccnc(-c4cc(C(=O)NCCCN5CCOCC5)c[nH]4)c3)c2)c1 [Example 254, 5-[4-(2-fluoro-5-{[(2-fluoro-5-methylphenyl)amino]carbonyl}phenoxy)pyridin-2-yl]-N-(3-morpholin-4-ylpropyl)-1H-pyrrole-3-carboxamide] | 24 | – | 35 | 35 |
| CCNC(=O)[C@H](CCC(=O)O)NC(=O)c1c[nH]c(-c2cc(Oc3cc(C(=O)Nc4cc(C)ccc4F)ccc3F)ccn2)c1 [Example 255, 5-(ethylamino)-4-[({5-[4-(2-fluoro-5-{[(2-fluoro-5-methylphenyl)amino]carbonyl}phenoxy)pyridin-2-yl]-1H-pyrrol-3-yl}carbonyl)amino]-5-oxopentanoic acid] | 28 | – | 44 | 185 |
| CCNC(=O)[C@H](CCC(=O)OC(C)(C)C)NC(=O)c1c[nH]c(-c2cc(Oc3cc(C(=O)Nc4cc(C)ccc4F)ccc3F)ccn2)c1 [Example 256, tert-butyl 5-(ethylamino)-4-[({5-[4-(2-fluoro-5-{[(2-fluoro-5-methylphenyl)amino]carbonyl}phenoxy)pyridin-2-yl]-1H-pyrrol-3-yl}carbonyl)amino]-5-oxopentanoate] | 55 | – | 24 | 167 |
| Cc1ccc(F)c(NC(=O)c2ccc(F)c(Oc3ccnc(-c4cc(C(=O)N[C@@H](CCC(=O)OC(C)(C)C)C(=O)O)c[nH]4)c3)c2)c1 [Example 257, 5-tert-butoxy-2-[({5-[4-(2-fluoro-5-{[(2-fluoro-5-methylphenyl)amino]carbonyl}phenoxy)pyridin-2-yl]-1H-pyrrol-3-yl}carbonyl)amino]-5-oxopentanoic acid] | 53 | – | 18 | 180 |
| Cc1ccc(F)c(NC(=O)c2ccc(F)c(Oc3ccnc(-c4cc(C(=O)NCCC(=O)O)c[nH]4)c3)c2)c1 [Example 258, 3-[({5-[4-(2-fluoro-5-{[(2-fluoro-5-methylphenyl)amino]carbonyl}phenoxy)pyridin-2-yl]-1H-pyrrol-3-yl}carbonyl)amino]propanoic acid] | 36 | – | 21 | 41 |
| COC(=O)CCNC(=O)c1c[nH]c(-c2cc(Oc3cc(C(=O)Nc4cc(C)ccc4F)ccc3F)ccn2)c1 [Example 259, methyl 3-[({5-[4-(2-fluoro-5-{[(2-fluoro-5-methylphenyl)amino]carbonyl}phenoxy)pyridin-2-yl]-1H-pyrrol-3-yl}carbonyl)amino]propanoate] | 35 | – | 23 | 47 |
| Cc1ccc(F)c(NC(=O)Nc2ccc(Oc3ccnc(-c4csc(C(=O)NCCC(=O)O)c4)c3)cc2)c1 [Example 278, 3-{[(4-{4-[4-({[(2-fluoro-5-methylphenyl)amino]carbonyl}amino)phenoxy]pyridin-2-yl}-2-thienyl)carbonyl]amino}propanoic acid] | 14 | – | 15 | 16 |

Source: patent publication US8906944B2, “Compounds as tyrosine kinase modulators” (Allergan, Inc., priority 2009, dated 2014)
